Laboratory results as given in PMC4830539, “Chemical Inhibition of Histone Deacetylases 1 and 2 Induces Fetal Hemoglobin through Activation of GATA2” (PLoS ONE, 2016).

Legend:
HbF = system: HbF; parameters: method as in PMID 16888791, PMID 12393499, PMID 25808664, PMID 24606390, PMID 16939493; settings: cell lines and primary cells; cited from earlier work
erythroid progenitors = system: erythroid progenitors; parameters: method as in PMID 16939493; settings: by suppressing the EPO-mediated survival of CD36highGYPAhigh cells; cited from earlier work
HbF protein = HbF protein by flow cytometry in BM cells (CS1, CS2); type: cell-based, human; settings: 1 μM ACY-957 or 30 μM hydroxyurea
Protocol: CD34+ cells isolated from human bone marrow of healthy normal donors (Lonza, AllCells, or StemCell Technologies), referred to as BM cells throughout this work, were cultured using two distinct 2-phase culture systems. These systems have been described previously and are referred to as Culture System 1 (CS1) and Culture System 2 (CS2) throughout this work. CS1 expansion media is StemSpan SFEM (StemCell Technologies) supplemented with CC100 (StemCell Technologies), 100 U/mL penicillin and 100 μg/mL streptomycin. CC100 is a mix of Flt-3 ligand (FLT3LG), KIT ligand (KITLG), interleukin-3 (IL3), and interleukin-6 (IL6). CS1 differentiation media is StemSpan SFEM supplemented with 1 U/ml erythropoietin (EPO), 5 ng/mL IL3, 20 ng/mL KITLG, 2 μM dexamethasone, 1 μM beta-estradiol, 100 U/mL penicillin and 100 μg/mL streptomycin. CS2 expansion media is StemSpan SFEM supplemented with 1% glutamine, 40 μg/mL lipids (Sigma), 100 ng/mL KITLG, 10 ng/mL IL3, and 0.5 U/mL EPO. CS2 differentiation media is same as CS2 expansion media, except 3 U/mL EPO.
Flow cytometry was performed on a FC500 flow cytometer ([…]). Fetal hemoglobin protein was assayed using the Fetal Hemoglobin Test Kit (Life Technologies) according to manufacturer’s protocol. Samples were stained with FITC-conjugated mouse IgG1 anti-human HbF antibody (clone HbF-1, Life Technologies). Each sample was also stained with a FITC-conjugated mouse IgG1 isotype control antibody (clone X40, BD Biosciences) and used as a negative control. FETALtrol cells were used as positive controls (Trillium Diagnostics). TFRC and GYPA were detected on fresh cells by staining with 20 μL of PE-conjugated anti-human TFRC (clone M-A712, catalog 555537, BD Biosciences) and 0.5 μL of FITC- or APC-conjugated anti-human GYPA (clone GA-R2 (HIR2), catalog 559943 or 551336, BD Biosciences) in 200 μL PBS with 0.1% BSA for 40 min on ice. Forward and side scatter, or staining with 7AAD (catalog 559925, BD Biosciences), was used to identify viable cells.
To determine if the HBG mRNA induction observed in the presence of ACY-957 was associated with an increase in the HbF protein, CS1 and CS2 cells at day 5 were stained with a fluorescently conjugated anti-HbF antibody and evaluated by flow cytometry. HbF positive cells were increased by 2 to 3-fold upon treatment with ACY-957, which exceeded the response observed with hydroxyurea (Fig 2B and 2E).

SMILES	HbF induction (HbF)	effect on erythroid progenitors (erythroid progenitors)	also measured
Nc1ccccc1NC(=O)c1ccc(CNC(=O)OCc2cccnc2)cc1 [MS-275]	induce HbF	–	–
CCN(CC)Cc1ccc2cc(COC(=O)Nc3ccc(C(=O)NO)cc3)ccc2c1 [givinostat]	induce HbF	–	–
O=C(CCCCCCC(=O)Nc1ccccc1)NO [vorinostat]	induce HbF	–	–
C/C=C1\NC(=O)[C@H]2CSSCC/C=C/[C@H](CC(=O)N[C@H](C(C)C)C(=O)N2)OC(=O)[C@H](C(C)C)NC1=O [romidepsin]	induce HbF	accumulation CD36^highGYPA^mid erythroid progenitors	–
NC(=O)NO [hydroxyurea, reference compound]	–	–	HbF positive cells (HbF protein; CS1, day 5): 20%; MFI of HbF positive cells (HbF protein; CS1, day 5): 52; HbF positive cells (HbF protein; CS2, day 5): 39%; MFI of HbF positive cells (HbF protein; CS2, day 5): 12
CC(/C=C/C(=O)NO)=C\[C@@H](C)C(=O)c1ccc(N(C)C)cc1 [trichostatinA]	–	accumulation CD36^highGYPA^mid erythroid progenitors	–
